Measurements taken from patent US20130149392A1, “METHOD OF TREATING NON-SMALL CELL LUNG CANCER WITH BIS-(THIOHYDRAZIDE)AMIDE COMPOUNDS” (SYNTA PHARMACEUTICALS CORP., priority 2011, published 2013).

Tested on: Stage IIIB or Stage IV Non-Small Cell Lung Cancer (NSCLC)
Assay: Phase 2 clinical trial of Compound (1) (STA-4783, elesclomol) with paclitaxel and carboplatin vs paclitaxel and carboplatin; PFS and OS by baseline LDH
Assay type: in vivo, human
Experimental: A Phase 2 Clinical Trial of Compound (1), or STA-4783 (elesclomol) in combination with paclitaxel and carboplatin for the treatment of chemotherapy naive patients with Stage IIIB or Stage IV Non-Small Cell Lung Cancer (NSCLC) was performed. It was a multicenter, randomized, double-blinded, 2-arm study evaluating the recommended Phase 2 dose of STA-4783 (elesclomol) and paclitaxel and AUC=6 mg·min/mL carboplatin as compared with the recommended Phase 2 dose of paclitaxel and AUC=6 mg·min/mL carboplatin.
Both progression-free survival (PFS) and overall survival (OS) were improved in the low baseline LDH (≦0.8 ULN) population (where ULN is Upper Limit of Normal, which in at least one laboratory was 234 units/L, significant deviation from which was low).
Table 1 presents PFS outcomes for ITT (Intent To Treat) population patients with high, normal and low baseline LDH levels. […] In patients with low baseline LDH levels, PFS was improved for treatment, with a median of 4.6 vs. 3.1 months (HR=0.88), where HR mean Hazard Ratio. In patients with normal baseline LDH, median PFS is similar for treatment and control arms (3.3 and 4.0 months, respectively), with a HR of 1.17. In patients with high baseline LDH, median PFS was 2.8 and 6.3 months for treatment and control arms, respectively (HR=[…])
Table 2 presents a summary of the OS analyses for the ITT population with high, normal and low baseline LDH levels. In patients with low baseline LDH levels, OS was improved for treatment, with a median of 10.7 vs. 8.5 months (HR=0.74). In patients with normal baseline LDH, median OS is similar for treatment and control arms (8.4 and 8.4 months, respectively), with a HR of 0.91. In patients with high baseline LDH, median […] was 5 and 10 months for treatment and control arms, respectively (HR=1.64)

[1] = elevated LDH (>1 ULN) population
[2] = low baseline LDH (≦0.8 ULN) population

CN(NC(=O)CC(=O)NN(C)C(=S)c1ccccc1)C(=S)c1ccccc1 [Compound (1), elesclomol]
overall survival (OS), result in words [1]: negative impact
progression-free survival (PFS), result in words [1]: negative impact
overall survival (OS), result in words [2]: improved
progression-free survival (PFS), result in words [2]: improved
